From patent publication US20150306110A1, “COMPOSITIONS AND METHODS FOR TREATMENT OF INFLAMMATION AND HYPERKERATOTIC LESIONS” (Novelix Pharmaceuticals, Inc., priority 2008, published 2015)
In brackets after ≈: the same amount, converted by molar mass.

Experiment: Solubility in ethanol, DMSO and ethanol-Tween 80
Format: physicochemical
Conditions: organic solvent or mixture
Experimental: After solution in ethanol or DMSO, or chemically similar solvents, NVX-207 or a related compound may be formulated with co-solvents such as Cremophor EL® and/or Tween® 80, in a similar manner described for taxanes. For example, the formulation approach for paclitaxel (TAXOL®; Bristol-Myers Squibb) was to use 50% Cremophor EL® and 50% ethanol. The pharmaceutical formulation of paclitaxel contains 30 mg paclitaxel dissolved in 5 ml of this (1:1, v/v) mixture. These and equivalent formulations allow for the application of NVX-207 in sufficiently high concentrations not only for topical, but also for intralesional and systemic (intravenous infusion) use. Solubility of NVX-207 in ethanol was determined to be at least 300 mg/ml and reached 250 mg/ml in DMSO. […] The solubility of NVX-207 in ethanol-Tween® 80 was evaluated. Two-hundred mg of NVX-207 was dissolved in 1 ml ethanol. […] Then an equal volume of Tween® 80 was added, to achieve a stock solution of 100 mg/ml of NVX-207. The stock solution was clear and yellow. Each stock solution was diluted first 1:1 (50 mg/ml NVX-207), then 1:5 (20 mg/ml NVX-207) and finally 1:10 (10 mg/ml NVX-207) with water. […] NVX-207 therefore has, apart from its higher activity, significant advantages over betulinic acid, that include higher activity, better solubility in pharmaceutically suitable solvents, and better handling.

C=C(C)[C@@H]1CC[C@]2(C(=O)O)CC[C@]3(C)[C@H](CC[C@@H]4[C@@]5(C)CC[C@H](O)C(C)(C)[C@@H]5CC[C@]43C)[C@@H]12 [betulinic acid, reference compound]
solubility (Solubility in DMSO): 10000 µg/mL (≈ 21.9 mM)
solubility (Solubility in ethanol): < 1000 µg/mL
